In US4352803A, “Novel naphthyridine derivatives, intermediates thereof, processes for preparation thereof, and use thereof” (Dainippon Pharmaceutical Co., Ltd., priority 1978, dated 1982):
In brackets after ≈: the same amount, converted by molar mass. Entries after “also recorded” stand apart in the source; their conditions may differ. Read-outs that look alike come from different tables or passages of the source.

Columns and labels:
[1] = system: Pseudomonas aeruginosa No. 12; experiment: in vivo efficacy against systemic infection in mice, Pseudomonas aeruginosa No. 12; settings: NO.12, in Mus musculus, po, 168 h
Method: Male mice (ddY) weighing about 20 g
(3) Pseudomonas aeruginosa No. 12;
(about 5 × 10^3 cells/mouse) of a bacterial
(§2) suspension in trypto-soy broth with 4% mucin.
(§3) Twice, about 5 minutes and 6 hours after infection.
The numerals in the table show ED50 (mg/kg). ED50 values were

[2] = system: Serratia marcescens IFC 3736; experiment: In vitro antibacterial activity (MIC), Serratia marcescens IFC 3736; type: cell-based
Description: (§1) (MIC) (μg/ml) Method; Chemotherapy, 22(6), 1126 (1974)

[3] = system: Streptococcus faecalis P-2473; experiment: In vitro antibacterial activity (MIC), Streptococcus faecalis P-2473; type: cell-based; settings: Enterococcus faecalis
Description: as §1

[4] = system: Shigella flexneri 2a; experiment: In vitro antibacterial activity (MIC), Shigella flexneri 2a; type: cell-based; settings: read-out: minimum inhibitory concentration (MIC)
Description: as §1

[5] = system: Staphylococcus aureus No. 50774; experiment: in vivo efficacy against systemic infection in mice, Staphylococcus aureus No. 50774; settings: NO.50774, in Mus musculus, po, 336 h
Method: Male mice (ddY) weighing about 20 g
Intravenous infection with (about
5 × 10^8 cells/mouse) of a bacterial
as §3

[6] = system: Salmonella typhimurium 8-9; experiment: In vitro antibacterial activity (MIC), Salmonella typhimurium 8-9; type: cell-based; settings: Salmonella enterica, read-out: minimum inhibitory concentration (MIC)
Description: as §1

[7] = system: Pseudomonas aeruginosa No. 12; experiment: In vitro antibacterial activity (MIC), Pseudomonas aeruginosa No. 12; type: cell-based; settings: Pseudomonas aeruginosa No. 12; read-out: minimum inhibitory concentration (MIC)
Description: as §1

[8] = in vivo
Method: The number of dead mice was counted after 7 days, and the value of median lethal dose (LD50, mg/kg) was calculated in accordance with the Behrens-Kaerber method.

[9] = system: Shigella flexneri 4a P-330; experiment: In vitro antibacterial activity (MIC), Shigella flexneri 4a P-330; type: cell-based; settings: 4AP330, read-out: minimum inhibitory concentration (MIC)
Description: as §1

[10] = system: Streptococcus pyogenes 65A; experiment: In vitro antibacterial activity (MIC), Streptococcus pyogenes 65A; type: cell-based; settings: Streptococcus pyogenes 65A; read-out: minimum inhibitory concentration (MIC)
Description: as §1

[11] = system: Pseudomonas aeruginosa Tsuchijima; experiment: In vitro antibacterial activity (MIC), Pseudomonas aeruginosa Tsuchijima; type: cell-based; settings: Pseudomonas aeruginosa Tsuchijima; read-out: minimum inhibitory concentration (MIC)
Description: as §1

[12] = system: Salmonella enteritidis No. 1891; experiment: In vitro antibacterial activity (MIC), Salmonella enteritidis No. 1891; type: cell-based; settings: Salmonella enterica, read-out: minimum inhibitory concentration (MIC)
Description: as §1

[13] = system: Staphylococcus aureus 209P JC-1; experiment: In vitro antibacterial activity (MIC), Staphylococcus aureus 209P JC-1; type: cell-based; settings: Staphylococcus aureus 209P JC-1; read-out: minimum inhibitory concentration (MIC)
Description: as §1

[14] = system: Gram-positive bacteria and Gram-negative bacteria; experiment: In vitro antibacterial activity against 19 strains of bacteria (overall); type: cell-based; settings: comparisons are with compounds of the invention
Description: as §1

[15] = system: Enterobacter cloacae P-2540; experiment: In vitro antibacterial activity (MIC), Enterobacter cloacae P-2540; type: cell-based
Description: as §1

[16] = system: Klebsiella pneumoniae No. 13; experiment: In vitro antibacterial activity (MIC), Klebsiella pneumoniae No. 13; type: cell-based
Description: as §1

[17] = system: Escherichia coli P-140a; experiment: In vitro antibacterial activity (MIC), Escherichia coli P-140a; type: cell-based; settings: Escherichia coli, read-out: minimum inhibitory concentration (MIC)
Description: as §1

[18] = system: Corynebacterium pyogenes C-21; experiment: In vitro antibacterial activity (MIC), Corynebacterium pyogenes C-21; type: cell-based; settings: Rhodococcus (subgen. Prescottella) equi, C21; Corynebacterium pyogenes C-21; read-out: minimum inhibitory concentration (MIC)
Description: as §1

[19] = system: Escherichia coli P-5101; experiment: in vivo efficacy against systemic infection in mice, Escherichia coli P-5101; settings: P5101, in Mus musculus, po, 168 h
Method: Male mice (ddY) weighing about 20 g
Intraperitoneal infection with (about
9 × 10^6 cells/mouse) of a bacterial
as §2, §3

[20] = system: Proteus mirabilis P-2381; experiment: In vitro antibacterial activity (MIC), Proteus mirabilis P-2381; type: cell-based; settings: P2381; Proteus mirabilis P-2381; read-out: minimum inhibitory concentration (MIC)
Description: as §1

[21] = system: Escherichia coli P-5101; experiment: In vitro antibacterial activity (MIC), Escherichia coli P-5101; type: cell-based; settings: P5101; Escherichia coli P-5101; read-out: minimum inhibitory concentration (MIC)
Description: as §1

[22] = system: Proteus morganii Kono; experiment: In vitro antibacterial activity (MIC), Proteus morganii Kono; type: cell-based; settings: Morganella morganii, read-out: minimum inhibitory concentration (MIC)
Description: as §1

[23] = system: Escherichia coli NIHJ JC-2; experiment: In vitro antibacterial activity (MIC), Escherichia coli NIHJ JC-2; type: cell-based; settings: Escherichia coli, NIHJJC2, read-out: minimum inhibitory concentration (MIC)
Description: as §1

[24] = system: Staphylococcus aureus No. 50774; experiment: In vitro antibacterial activity (MIC), Staphylococcus aureus No. 50774; type: cell-based; settings: Staphylococcus aureus No. 50774; read-out: minimum inhibitory concentration (MIC)
Description: as §1

[25] = system: Pseudomonas aeruginosa No. 12; experiment: in vivo efficacy on the ascending kidney infection in mice; parameters: species or system mice (ddY-S); settings: 120 h; ascending kidney infection with Pseudomonas aeruginosa No. 12; po; mice
Method: Female mice (ddY-S) weighing 22 to 30 g were anesthetized by intravenous injection of sodium pentobarbital at a dose of 50 mg/kg. Through a small suprapubic incision, the urinary bladder was exposed and then infected by injecting 0.1 ml of a 1:10,000 dilution of Pseudomonas aeruginosa No. 12 cultured for 20 hours in trypto-soy broth, using 0.25 ml syringe with 0.25 mm needle. The mice were restrained from drinking water for a period from 1 day before to 1 day after the infection and treated twice a day for 3 days starting on the day of infection. On the 5th day after infection, the kidneys were harvested for the detection of the bacteria, transversely bisected and stamped on King A Agar, which were incubated at 37° C. overnight. No bacterial finding in the kidneys was regarded as protected from the ascending kindey infection. ED50 values were calculated by probit analysis.

[26] = system: Gram-positive and Gram-negative bacteria; experiment: in vivo therapeutic efficacy against systemic infections in mice (overall); parameters: species or system mice (ddY); settings: systemic infections with Gram-positive and Gram-negative bacteria
[27] = IFC3736, Serratia marcescens IFC 3736, read-out: minimum inhibitory concentration (MIC)
[28] = P2473, Streptococcus faecalis P-2473, read-out: minimum inhibitory concentration (MIC)
[29] = Klebsiella pneumoniae No. 13, read-out: minimum inhibitory concentration (MIC)
[30] = Salmonella enteritidis No. 1891
[31] = Enterobacter cloacae, P2540, read-out: minimum inhibitory concentration (MIC)

Row | SMILES | ED50 [1] | MIC [2, 27] | MIC [3, 28] | MIC [4] | ED50 [5] | MIC ([6]; Salmonella typhimurium 8-9) | MIC [7] | MIC [9] | MIC [10] | MIC [11] | MIC [13] | antibacterial activity (in words) [14] | MIC [16, 29] | MIC [17] | MIC [18] | MIC [20] | MIC [21] | MIC [22] | MIC [23] | MIC [24] | also measured
1 | CCn1cc(C(=O)O)c(=O)c2cc(F)c(N3CCN(C)CC3)nc21 [Compound B, 1-Ethyl-6-fluoro-1,4-dihydro-7-(4-methyl-1-piperazinyl)-4-oxo-1,8-naphthyridine-3-carboxylic acid] | 10.6 mg/kg | 1.56 µg/mL (≈ 4.67 µM) | 12.5 µg/mL (≈ 37.4 µM) | 0.39 µg/mL (≈ 1.17 µM) | 4.8 mg/kg | 0.2 µg/mL (≈ 0.598 µM) | 3.13 µg/mL (≈ 9.36 µM) | 0.78 µg/mL (≈ 2.33 µM) | 6.25 µg/mL (≈ 18.7 µM) | 1.56 µg/mL (≈ 4.67 µM) | 1.56 µg/mL (≈ 4.67 µM) | equivalent or higher antibacterial activity | 0.39 µg/mL (≈ 1.17 µM) | 0.39 µg/mL (≈ 1.17 µM) | 1.56 µg/mL (≈ 4.67 µM) | 1.56 µg/mL (≈ 4.67 µM) | 0.2 µg/mL (≈ 0.598 µM) | 0.78 µg/mL (≈ 2.33 µM) | 0.39 µg/mL (≈ 1.17 µM) | 1.56 µg/mL (≈ 4.67 µM) | toxicity (in words) ([8]; acute, oral, mice): extremely high toxicity; LD50 at 168 h ([8]; mouse, in vivo, po): 210 mg/kg; MIC ([12]; ENTERITIDIS): 0.1 µg/mL (≈ 0.299 µM); MIC ([15]; P2540, Enterobacter cloacae P-2540, read-out: minimum inhibitory concentration (MIC)): 0.39 µg/mL (≈ 1.17 µM); ED50 [19]: 1.2 mg/kg
2 | CCn1cc(C(=O)O)c(=O)c2cc(F)c(N3CCNCC3)cc21 [Compound D, 1-Ethyl-6-fluoro-1,4-dihydro-4-oxo-7-(1-piperazinyl)quinoline-3-carboxylic acid] | 15.5 mg/kg | 0.2 µg/mL (≈ 0.626 µM) |  | 0.1 µg/mL (≈ 0.313 µM) | 21.9 mg/kg | 0.05 µg/mL (≈ 0.157 µM) | 0.78 µg/mL (≈ 2.44 µM) | 0.2 µg/mL (≈ 0.626 µM) |  | 0.39 µg/mL (≈ 1.22 µM) | 0.39 µg/mL (≈ 1.22 µM) |  | 0.2 µg/mL (≈ 0.626 µM) | 0.1 µg/mL (≈ 0.313 µM) | 0.78 µg/mL (≈ 2.44 µM) | 0.2 µg/mL (≈ 0.626 µM) | 0.05 µg/mL (≈ 0.157 µM) | 0.1 µg/mL (≈ 0.313 µM) | 0.1 µg/mL (≈ 0.313 µM) | 0.78 µg/mL (≈ 2.44 µM) | MIC ([3]; P2473, read-out: minimum inhibitory concentration (MIC)): 3.13 µg/mL (≈ 9.8 µM); ED50 [25]: 16.1 mg/kg; MIC [12, 30]: 0.05 µg/mL (≈ 0.157 µM); MIC [15, 31]: 0.1 µg/mL (≈ 0.313 µM); ED50 [19]: 4.7 mg/kg
3 | CCn1cc(C(=O)O)c(=O)c2ccc(N3CCNCC3)nc21 [Compound A, 1-Ethyl-1,4-dihydro-4-oxo-7-(1-piperazinyl)-1,8-naphthyridine-3-carboxylic acid] | > 200 mg/kg |  | > 100 µg/mL | 6.25 µg/mL (≈ 20.7 µM) | > 100 mg/kg |  | 25 µg/mL (≈ 82.7 µM) | 12.5 µg/mL (≈ 41.3 µM) | 50 µg/mL (≈ 165 µM) | 25 µg/mL (≈ 82.7 µM) | 25 µg/mL (≈ 82.7 µM) | much inferior antibacterial activity; also recorded: clearly inferior |  | 6.25 µg/mL (≈ 20.7 µM) | 50 µg/mL (≈ 165 µM) | 25 µg/mL (≈ 82.7 µM) | 3.13 µg/mL (≈ 10.4 µM) | 6.25 µg/mL (≈ 20.7 µM) | 6.25 µg/mL (≈ 20.7 µM) | 50 µg/mL (≈ 165 µM) | MIC ([2]; Serratia marcescens, IFC3736, read-out: minimum inhibitory concentration (MIC)): 12.5 µg/mL (≈ 41.3 µM); MIC ([6]; TYPHIMURIUM): 6.25 µg/mL (≈ 20.7 µM); MIC [12, 30]: 1.56 µg/mL (≈ 5.16 µM); MIC [15, 31]: 6.25 µg/mL (≈ 20.7 µM); therapeutic effect / in vivo antibacterial activity (in words) [26]: clearly inferior; MIC ([16]; Klebsiella pneumoniae, NO.13, read-out: minimum inhibitory concentration (MIC)): 12.5 µg/mL (≈ 41.3 µM)
